Laboratory results published in patent publication US8927580B2, “Thiosemicarbazone compounds and use in the treatment of cancer” (Oncochel Therapeutics LLC, priority 2010, dated 2015).
Values belong to the compound of their own block, whether it stands above or below them.

Tests used:
[1] = system: DMS-53 human lung carcinoma; assay: DMS-53 xenograft in nude mice, i.v. administration: tumour growth; assay type: in vivo, nude mice (BALBc nu/nu); details: 0.75 mg/kg
[2] = system: PANC 1 human pancreatic carcinoma; assay: PANC 1 xenograft in nude mice: tumour growth; assay type: in vivo, nude mice (BALBc nu/nu); details: for average tumour size (% of the original tumour size): after 6 weeks; for final tumour weight: after 43 days
Method: FIG. 5). […] (5 mg/kg) or vehicle control.

p21 = assay: Western blot analysis, p21 expression; assay type: cell-based; details: MIAPaCa-2 cells
Method: (§1) Western analysis was performed via established protocols (Gao, J. and D. R. Richardson (2001). Blood 98: 842-50). The primary antibodies used were against NDRG1 (Abcam; UK), p21, cyclin D1, transferrin receptor 1 (TfR1; Santa Cruz, CA, USA) and β-actin (Sigma-Aldrich), with secondary HRP-conjugated goat and mouse antibodies (Sigma-Aldrich).
(§2) Dp4cycH4mT was examined to determine whether it could up-regulate NDRG-1 expression. To further evaluate the effect of the chelator Dp4cycH4mT on other key molecules involved in cell cycle progression, the expression of the cyclin-dependent kinase inhibitor, p21, as well as cyclin D1 in MIAPaCa-2 cells was also examined.

[3] = system: DMS-53 human lung carcinoma; assay: DMS-53 xenograft in nude mice, oral gavage: tumour growth; assay type: in vivo, nude mice (BALBc nu/nu); details: 10 mg/kg, 21 days
[4] = DMS-53 xenograft oral study: body and organ weights, haematology, biochemistry, histology; assay type: in vivo, nude mice (BALBc nu/nu)
methemoglobin (metHb) = assay: metHb formation in vivo; design: species or system C57BL6 mice; details: 6 mg/kg intravenously, blood taken after 30 min
Method: FIG. 13. Effect of thiosemicarbazone chelators on metHb-formation in vivo. MetHb after Dp44mT, Triapine® or Dp4cycH4mT treatment in vivo at a dose of 6 mg/kg administered intravenously via the tail vein. Mice in the control group were treated with vehicle alone. At 30 minutes post-administration, whole blood was collected for determination of metHb levels.
(§3) The levels of metHb and metMb in RBC lysates were determined using a Shimadzu UV-Vis spectrophotometer (UV-1800; Shimadzu Corporation, Kyoto, Japan) at 577 nm and 630 nm for metHb and metMb in accordance with published methods (Winterbourn CC and Carrell R W (1977). Biochem J 165: 141-148).
(§4) C57BL6 mice (7-8 weeks-old) were used under a protocol approved by the university of Sydney Animal Ethics Committee. Dp44mT, Triapine® or Dp4cycH4mT (all at 6 mg/kg) were dissolved in 30% propylene glycol/saline and administered iv via the tail vein. Subsequently, 30 min after administration, mice were anesthetized with isoflurane and blood samples obtained by cardiac puncture. Blood samples were lysed with 2.5 volumes of ultrapure water for metHb estimation. Mice were sacrificed with isoflurane, the heart exhaustively perfused with HBSS and Mb isolated.

[5] = DMS-53 xenograft i.v. study: body and organ weights, haematology, histology; assay type: in vivo, nude mice (BALBc nu/nu)
cyclin D1 = assay: Western blot analysis, cyclin D1 levels; assay type: cell-based; details: MIAPaCa-2 cells
Method: as §1, §2

NDRG1 = assay: Western blot analysis, NDRG1 expression; assay type: cell-based; details: MIAPaCa-2 cells
Method: as §1, §2

metmyoglobin (metMb) = assay: metMb formation in vivo; design: species or system C57BL6 mice; details: 6 mg/kg intravenously, 30 min post-administration, heart
Method: FIG. 14. Effect of thiosemicarbazone chelators on metMb-formation in vivo. MetMb levels after Dp44mT Triapine® or Dp4cycH4mT treatment in vivo at a dose of 6 mg/kg administered intravenously via the tail vein. Mice in the control group were treated with vehicle alone. At 30 min post-administration, whole hearts were collected for determination of metMb levels.
Mouse heart tissue was exhaustively perfused with ice-cold HBSS to remove blood and homogenized in ice-cold HBSS containing protease inhibitor cocktail (Roche, Basel, Switzerland). Heart homogenates were centrifuged (16,000×xg/45 min/4° C.) and the supernatant ([oxyMb]=50 μM) used immediately.
as §3, §4

[6] = mouse, in vivo
[7] = system: human RBCs (methemoglobin formation); assay type: cell-based; details: 3 h, 25 μM
Method: FIG. 12. Effect of DFO and thiosemicarbazone chelators on metHb-formation in vitro. Whole RBCs were incubated with 1-25 μM chelator at 37° C. for 3 h. Cells were lysed with ultra-pure H2O and metHb levels were measured spectrophotometrically. Results are the mean±SD from 3 experiments.
Whole blood samples were collected from healthy human donors or mice in suitable blood collection tubes containing EDTA and used immediately. Red blood cells (RBCs) were isolated by centrifugation (480 xg/5 min/4° C.) then washed in Hank's balanced salt solution (HBSS). RBCs were resuspended 1:1 in HBSS and whole RBC assays were carried out at 37° C.
as §3
The effect of chelator concentration (1-25 μM) on metHb-generation with intact RBCs was assessed (FIG. 12). […] At 25 μM, these chelators increased metHb formation to 19.95±1.0 and 19.9±3.0% of total Hb, respectively (FIG. 12). The negative control chelator Dp2mT, by design, features a methyl group that hinders complex formation. Accordingly, this chelator cannot participate in the redox-interaction with iron that gives rise to metHb formation (FIG. 12).

[8] = system: CFPAC-1 pancreatic cancer cells; assay: MTT proliferation assay, CFPAC-1; assay type: cell-based; details: Homo sapiens; CFPAC-1, MTT, 72 h
Method: (§5) The pancreatic cancer cell lines, including MIAPaCa-2, PANC 1, CAPAN-2 and CFPAC-1 were a generous gift from Prof. Andrew Biankin (Garvan Institute, NSW, Australia). The MIAPaCa-2, PANC 1 and CFPAC-1 cell lines were grown in DMEM medium (Invitrogen) and CAPAN-2 cells were grown in McCoy's medium (Invitrogen). All media was supplemented with 10% (v/v) fetal calf serum (Invitrogen), 1% (v/v) non-essential amino acids (Invitrogen), 1% (v/v) sodium pyruvate (Invitrogen), 2 mM L-glutamine (Invitrogen), 100 μg/mL of streptomycin (Invitrogen), 100 U/ml penicillin (Invitrogen), and 0.28 μg/mL of fungizone.
(§6) To further examine the spectrum of anti-proliferative activity, Dp4cycH4mT was tested against pancreatic cancer in vitro, performing MTT proliferation assays with PANC 1, MIAPaCa-2, CFPAC-1 and CAPAN-2 pancreatic cancer cells. As a comparison, currently used treatments for pancreatic cancer including gemcitabine and 5-fluorouracil were also tested. The iron chelator, DFO, was included as a positive control.
(§7) Table 2A. Anti-proliferative activity of Dp4cycH4mT against pancreatic cancer cell lines. Growth and antiproliferative activity IC50 (μM) values of Dp4cycH4mT in a variety of pancreatic cell lines and in comparison to DFO and the clinically used drugs gemcitabine and 5-fluorouracil as determined by the MTT assay. Cells were seeded and allowed to attach to wells for 24 h and then incubated for 72 h at 37° C. with control medium or the chelators. Results are mean±SD (3 experiments).
as §7, with “2B.” for “2A.”, “IC90” for “Growth and antiproliferative activity IC50”

[9] = system: CAPAN-2 pancreatic cancer cells; assay: MTT proliferation assay, CAPAN-2; assay type: cell-based; details: Homo sapiens; CAPAN-2, MTT, 72 h
Method: as §5, §6, §7
as §7, with “2B.” for “2A.”, “IC90” for “Growth and antiproliferative activity IC50”

[10] = system: transferrin receptor 1 (TfR1); assay: Western blot analysis, transferrin receptor 1 levels; assay type: cell-based; details: MIAPaCa-2 cells
Method: as §1, §2

[11] = system: MIAPaCa-2 pancreatic cancer cells; assay: MTT proliferation assay, MIAPaCa-2; assay type: cell-based; details: Homo sapiens, MIA PaCa-2; MIAPaCa-2, MTT, 72 h
Method: as §5, §6, §7
as §7, with “2B.” for “2A.”, “IC90” for “Growth and antiproliferative activity IC50”

[12] = system: PANC 1 pancreatic cancer cells; assay: MTT proliferation assay, PANC 1; assay type: cell-based; details: Homo sapiens; PANC 1, MTT, 72 h
Method: as §5, §6, §7
as §7, with “2B.” for “2A.”, “IC90” for “Growth and antiproliferative activity IC50”

[13] = gemcitabine 5 mg/kg intra-peritoneally every 3rd day

- myocardial lesions (Gomori-Trichrome stain) ([4]; Dp44mT 0.75 mg/kg, Dp4e4mT.HCl 3 weeks at 2.5, 5, 7.5 and 10 mg/kg oral): myocardial lesions were observed
- histology of the liver, spleen, kidney, brain or tumour (H & E) vs control ([4]; Dp44mT 2 weeks at 0.75 mg/kg, Dp4e4mT.HCl 3 weeks at 2.5, 5, 7.5 and 10 mg/kg oral): no significant differences
- Brain weight ([4]; oral, 10 mg/kg): 0.363 ± 0.008 g
- Heart weight ([4]; oral, 10 mg/kg): 0.102 ± 0.005 g
- Kidney weight ([4]; oral, 10 mg/kg): 0.208 ± 0.004 g
- Liver weight ([4]; oral, 10 mg/kg): 0.88 ± 0.02 g
- Lung weight ([4]; oral, 10 mg/kg): 0.133 ± 0.008 g
- Spleen weight ([4]; oral, 10 mg/kg): 0.081 ± 0.005 g
- metHb (% of total Hb) (methemoglobin (metHb)): 6.3±0.8 % of total Hb
- histology of the liver, spleen, kidney, brain or tumour (H & E) vs control ([5]; 2 weeks i.v., Dp44mT 0.75 mg/kg, Dp4e4mT.HCl 4 and 6 mg/kg): no significant differences
- myocardial lesions (Gomori-Trichrome stain) ([5]; 2 weeks i.v., Dp44mT 0.75 mg/kg, Dp4e4mT.HCl 4 or 6 mg/kg): myocardial lesions were observed
- change in red blood cell count, haemoglobin or white blood cell count ([5]; after 2 weeks, Dp44mT 0.75 mg/kg, Dp4e4mT.HCl 1.5, 4 or 6 mg/kg i.v.): no significant change
- HCT ([5]; i.v., 0.75 mg, average): 0.43
- HGB ([5]; i.v., 0.75 mg, average): 135.50 g/L
- PLT ([5]; i.v., 0.75 mg, average): 1274.50 10 × 9 cells/L
- RBC ([5]; i.v., 0.75 mg, average): 9.87 10 × 12 cells/L
- WBC ([5]; i.v., 0.75 mg, average): 5.38 10 × 9 cells/L
- Brain weight ([5]; i.v., 0.75 mg/kg): 0.32 ± 0.01 g
- Heart weight ([5]; i.v., 0.75 mg/kg): 0.11 ± 0.01 g
- Kidney weight ([5]; i.v., 0.75 mg/kg): 0.23 ± 0.01 g
- Liver weight ([5]; i.v., 0.75 mg/kg): 1.04 ± 0.05 g
- Spleen weight ([5]; i.v., 0.75 mg/kg): 0.13 ± 0.02 g
- weight loss (% of initial weight) ([5]; i.v., 0.75 mg/kg): 9%
- levels of metMb (metmyoglobin (metMb)): 82.3±2.6%
- KIDNEY Fe (score for presence of iron stained by Perl's stain) [6]: +/−
- SPLEEN HPC (score for the presence of haematopoietic cells in the splenic red pulp) [6]: N
- iron deposits in the kidney [6]: iron deposits were observed
Structure (SMILES): CN(C)C(=S)NN=C(c1ccccn1)c1ccccn1 [Dp44mT, di-2-pyridylketone 4,4-dimethyl-3-thiosemicarbazone, reference compound]
- Tumour weight [1]: 0.1 ± 0.02 g
- net tumour size (% of the initial tumour volume) ([1]; after 25 days): 122%
- average tumour size (% of the original tumour size) ([2]; 0.4 mg/kg i.v. 5 days/week): 305%
- final tumour weight ([2]; 0.4 mg/kg i.v.): 122 ± 33 mg
- p21 expression (p21): markedly (p<0.05) increasing
- Tumour weight [3]: 0.46 ± 0.1 g
- Body weight (% initial) ([4]; oral, 10 mg/kg): 93.6 ± 1.8 % initial
- Body weight (% of initial weight) ([5]; i.v., 0.75 mg/kg): 91.01 ± 5.3 % initial weight
- cyclin D1 levels (cyclin D1): significantly (p<0.05) reduced
- NDRG1 expression (NDRG1): significantly (p<0.01) up-regulated

Structure (SMILES): NC(=S)NN=Cc1ncccc1N [Triapine®, 3-aminopyridine-2-carboxaldehyde thiosemicarbazone]
- levels of metMb (metmyoglobin (metMb)): 75.2±4.2%
- metHb formation (% of total Hb) [7]: 19.95±1.0 % of total Hb

- IC50 [8]: 0.02 ± 0.02 µM
- IC90 [8]: 30.4 ± 2.2 µM
- IC50 [9]: 40.8 ± 4.7 µM
- IC90 [9]: > 5 µM
- KIDNEY Fe (score for presence of iron stained by Perl's stain) [6]: −
- LIVER HP (histopathological changes) [6]: N
- LUNG HP (histopathological changes) [6]: N
- MYOCARDIUM Fibrosis [6]: −
- MYOCARDIUM HP (histopathological changes) [6]: N
- SPLEEN HPC (score for the presence of haematopoietic cells in the splenic red pulp) [6]: N
- iron deposits in the kidney [6]: no evidence of iron deposits
- IC50 [11]: 0.02 ± 0.005 µM
- IC90 [11]: > 5 µM
- IC50 [12]: 11 ± 0.8 µM
- IC90 [12]: > 5 µM
Structure (SMILES): Nc1ccn([C@@H]2O[C@H](CO)[C@@H](O)C2(F)F)c(=O)n1 [Gemcitabine, gemcitabine]
- Tumour weight ([2]; Gemcitabine 5 mg/kg/day): 0.07 ± 0.02 g
- average tumour size (% of the original tumour size) [2, 13]: 319%
- final tumour weight [2, 13]: 67 ± 25 mg
- p21 expression (p21): did not modulate
- cyclin D1 levels (cyclin D1): did not modulate
- NDRG1 expression (NDRG1): no marked effect
- TfR1 levels [10]: did not modulate
